The term IC50 denotes the point on the concentration scale where inhibition reaches its midpoint.

The target of one assay is T1, Cyclic GMP-AMP synthase (Homo sapiens, UniProt Q8N884). Kind of assay: Inhibition of N-terminal 6His-SUMO tagged human cGAS (1 to 522 residues) extracted from Escherichia coli BL21(DE3)pLysS cells using GTP/ATP as substrate by measuring cGAMP production incubated for 90 mins in presence of 45 base pair DNA by mass spectrometric analysis.
T1 sequence (Q8N884 whole entry, the tested form may be a part): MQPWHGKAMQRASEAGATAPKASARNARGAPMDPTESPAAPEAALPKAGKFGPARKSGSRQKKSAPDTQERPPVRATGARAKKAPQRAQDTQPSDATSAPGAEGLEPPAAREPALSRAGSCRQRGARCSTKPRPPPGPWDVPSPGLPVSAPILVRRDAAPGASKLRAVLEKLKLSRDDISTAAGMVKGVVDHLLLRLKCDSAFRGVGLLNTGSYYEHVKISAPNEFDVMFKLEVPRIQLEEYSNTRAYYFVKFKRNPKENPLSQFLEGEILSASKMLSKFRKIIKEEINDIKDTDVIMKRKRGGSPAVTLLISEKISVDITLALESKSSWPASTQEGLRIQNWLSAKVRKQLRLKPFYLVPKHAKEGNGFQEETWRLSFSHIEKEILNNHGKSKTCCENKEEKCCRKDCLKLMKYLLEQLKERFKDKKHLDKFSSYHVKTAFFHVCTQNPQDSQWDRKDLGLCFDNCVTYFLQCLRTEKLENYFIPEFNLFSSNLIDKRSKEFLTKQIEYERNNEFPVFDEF
Turning to `CC(=O)[C@@H]1C[C@H]2CN1c1nc(nc3c1oc1ccccc13)CCOCCCC(=O)N1CC[C@@H]([C@@H](C)C1)n1c(nc3cc(Cl)ccc31)O2`, the half-inhibitory concentration (IC50) was found to be 2.8 nM.
As for `C[C@H]1CN2CC[C@H]1n1c(nc3ccccc31)O[C@H]1C[C@@H](C(=O)O)N(C1)c1nc(nc3c1oc1ccccc13)C(F)(F)COCCCCC2=O`, the IC50 is 2.1 nM.

The next assay has as its target T1, Cyclic GMP-AMP synthase. The assay is described as follows: Inhibition of cGAS in human THP-1 cells expressed in baculovirus infected insect cells incubated for 18 hrs by Lucia luciferase reporter assay.
`C[C@H]1CN2CC[C@@H]1n1c(nc3ccccc31)O[C@H]1C[C@@H](C(=O)O)N(C1)c1nc(nc3c1oc1ccccc13)CCCCCN(C)C2=O` returned an IC50 of 500 nM.
`CC(=O)[C@@H]1C[C@H]2CN1c1nc(nc3c1oc1ccccc13)CCOCCCC(=O)N1CC[C@@H]([C@@H](C)C1)n1c(nc3cc(Cl)ccc31)O2` yielded an IC50 of 2.8 nM.
The compound `Cc1cccc2c1nc1n2[C@@H]2CCN(C[C@H]2C)C(=O)CCCCCC(F)(F)c2nc(c3oc4ccccc4c3n2)N2C[C@H](C[C@H]2C(=O)O)O1` registered an IC50 of 180 nM.
Same read-out and setting: in the case of `C[C@@H]1CN2CC[C@H]1n1c(nc3ccccc31)O[C@H]1C[C@@H](C(=O)O)N(C1)c1nc(nc3c1oc1ccccc13)CCCCCOC2=O` it was 180 nM.
`C[C@@H]1CN2CC[C@H]1n1c(nc3cc(Cl)ccc31)O[C@H]1C[C@@H](C(=O)O)N(C1)c1nc(nc3c1oc1ccccc13)CCOCCCC2=O` gave an IC50 of 39 nM.
The compound `C[C@H]1CN2CC[C@@H]1n1c(nc3ccccc31)O[C@H]1C[C@@H](C(=O)O)N(C1)c1nc(nc3c1oc1ccccc13)C(F)(F)CCCCC(F)(F)C2=O` showed an IC50 of 13 nM.
As for `C[C@H]1CN2CC[C@@H]1n1c(nc3cc(Cl)ccc31)O[C@H]1C[C@@H](C(=O)O)N(C1)c1nc(nc3c1oc1cc(Cl)ccc13)CCOCCCC2=O`, the IC50 turned out to be 2.4 nM.
Turning to `C[C@H]1CN2CC[C@@H]1n1c(nc3ccccc31)O[C@H]1C[C@@H](C(=O)O)N(C1)c1nc(nc3c1oc1cc(Cl)ccc13)C(F)(F)CCCOCC2=O`, half-maximal inhibition (IC50) was put at 1.5 nM.
Consider `C[C@H]1CN2CC[C@@H]1n1c(nc3cc(Cl)ccc31)O[C@H]1C[C@@H](C(=O)O)N(C1)c1nc(nc3c1oc1ccccc13)C(F)(F)OCCCCC2=O`, for which the IC50 was 3.1 nM.
`C[C@H]1CN2CC[C@H]1n1c(nc3ccccc31)O[C@H]1C[C@@H](C(=O)O)N(C1)c1nc(nc3c1oc1ccccc13)C(F)(F)COCCCCC2=O` came in with an IC50 of 0.44 nM.

In the next assay the target is T1, Cyclic GMP-AMP synthase. Kind of assay: Inhibition of cGAS in dsDNA stimulated human Whole blood cell by measuring IFNalpha-2a production incubated for 60 mins followed by addition of double stranded DNA measured after 1350 mins by microplate reader assay. It is filed as tissue-based.
In turn, `C[C@H]1CN2CC[C@@H]1n1c(nc3ccccc31)O[C@H]1C[C@@H](C(=O)O)N(C1)c1nc(nc3c1oc1ccccc13)CCCCCN(C)C2=O` came in with an IC50 of 186 nM.
`CC(=O)[C@@H]1C[C@H]2CN1c1nc(nc3c1oc1ccccc13)CCOCCCC(=O)N1CC[C@@H]([C@@H](C)C1)n1c(nc3cc(Cl)ccc31)O2` had an IC50 of 5 nM.
Consider `Cc1cccc2c1nc1n2[C@@H]2CCN(C[C@H]2C)C(=O)CCCCCC(F)(F)c2nc(c3oc4ccccc4c3n2)N2C[C@H](C[C@H]2C(=O)O)O1`, for which the IC50 worked out at 1580 nM.
`C[C@@H]1CN2CC[C@H]1n1c(nc3ccccc31)O[C@H]1C[C@@H](C(=O)O)N(C1)c1nc(nc3c1oc1ccccc13)CCCCCOC2=O`: inhibition was half-maximal at 439 nM (IC50).
On the same count and under the same terms, the figure for `C[C@@H]1CN2CC[C@H]1n1c(nc3cc(Cl)ccc31)O[C@H]1C[C@@H](C(=O)O)N(C1)c1nc(nc3c1oc1ccccc13)CCOCCCC2=O` is 87 nM; for `C[C@H]1CN2CC[C@@H]1n1c(nc3ccccc31)O[C@H]1C[C@@H](C(=O)O)N(C1)c1nc(nc3c1oc1ccccc13)C(F)(F)CCCCC(F)(F)C2=O` it is 8 nM.
`C[C@H]1CN2CC[C@@H]1n1c(nc3cc(Cl)ccc31)O[C@H]1C[C@@H](C(=O)O)N(C1)c1nc(nc3c1oc1cc(Cl)ccc13)CCOCCCC2=O`: the IC50 is 17 nM.
`C[C@H]1CN2CC[C@@H]1n1c(nc3ccccc31)O[C@H]1C[C@@H](C(=O)O)N(C1)c1nc(nc3c1oc1cc(Cl)ccc13)C(F)(F)CCCOCC2=O`: the IC50 stood at 4 nM.
With `C[C@H]1CN2CC[C@@H]1n1c(nc3cc(Cl)ccc31)O[C@H]1C[C@@H](C(=O)O)N(C1)c1nc(nc3c1oc1ccccc13)C(F)(F)OCCCCC2=O`, inhibition was half-maximal at 3 nM (IC50).
Regarding `C[C@H]1CN2CC[C@H]1n1c(nc3ccccc31)O[C@H]1C[C@@H](C(=O)O)N(C1)c1nc(nc3c1oc1ccccc13)C(F)(F)COCCCCC2=O`, half-maximal inhibition (IC50) required 1 nM.

Another assay has as its target T1, Cyclic GMP-AMP synthase. Kind of assay: Ratio of IC50 for inhibition of cGAS in human THP-1 cells using cGAMP as substrate to IC50 for inhibition of cGAS in human THP-1 cells expressed in baculovirus infected insect cells.
With `C[C@H]1CN2CC[C@@H]1n1c(nc3ccccc31)O[C@H]1C[C@@H](C(=O)O)N(C1)c1nc(nc3c1oc1ccccc13)CCCCCN(C)C2=O`, the Ratio IC50 was determined as 15.
Same read-out and setting: in the case of `CC(=O)[C@@H]1C[C@H]2CN1c1nc(nc3c1oc1ccccc13)CCOCCCC(=O)N1CC[C@@H]([C@@H](C)C1)n1c(nc3cc(Cl)ccc31)O2` it was greater than 3560; in that of `Cc1cccc2c1nc1n2[C@@H]2CCN(C[C@H]2C)C(=O)CCCCCC(F)(F)c2nc(c3oc4ccccc4c3n2)N2C[C@H](C[C@H]2C(=O)O)O1`, 33.
As for `C[C@@H]1CN2CC[C@H]1n1c(nc3ccccc31)O[C@H]1C[C@@H](C(=O)O)N(C1)c1nc(nc3c1oc1ccccc13)CCCCCOC2=O`, the Ratio IC50 was 45.
As to `C[C@@H]1CN2CC[C@H]1n1c(nc3cc(Cl)ccc31)O[C@H]1C[C@@H](C(=O)O)N(C1)c1nc(nc3c1oc1ccccc13)CCOCCCC2=O`, the Ratio IC50 was greater than 253.
As to `C[C@H]1CN2CC[C@@H]1n1c(nc3ccccc31)O[C@H]1C[C@@H](C(=O)O)N(C1)c1nc(nc3c1oc1ccccc13)C(F)(F)CCCCC(F)(F)C2=O`, the Ratio IC50 worked out at 519.
For `C[C@H]1CN2CC[C@@H]1n1c(nc3cc(Cl)ccc31)O[C@H]1C[C@@H](C(=O)O)N(C1)c1nc(nc3c1oc1cc(Cl)ccc13)CCOCCCC2=O`, the Ratio IC50 worked out at 3930.
`C[C@H]1CN2CC[C@@H]1n1c(nc3ccccc31)O[C@H]1C[C@@H](C(=O)O)N(C1)c1nc(nc3c1oc1cc(Cl)ccc13)C(F)(F)CCCOCC2=O`: the Ratio IC50 was greater than 6580.
`C[C@H]1CN2CC[C@@H]1n1c(nc3cc(Cl)ccc31)O[C@H]1C[C@@H](C(=O)O)N(C1)c1nc(nc3c1oc1ccccc13)C(F)(F)OCCCCC2=O`: the Ratio IC50 is greater than 2220.
Turning to `C[C@H]1CN2CC[C@H]1n1c(nc3ccccc31)O[C@H]1C[C@@H](C(=O)O)N(C1)c1nc(nc3c1oc1ccccc13)C(F)(F)COCCCCC2=O`, the Ratio IC50 was determined as 32100.

The values are drawn from ChEMBL document CHEMBL5608255, “Inhibitors of the Cyclic GMP-AMP Synthase (cGAS) as Potential Treatment for Autoimmune and Inflammatory Diseases” (ACS Med Chem Lett, 2024).
